In article PMC3375117 (International Microbiology, 2011):
In brackets after ≈: the same amount, converted by molar mass. Where two headings read alike, the source gives them in different places.

Tests used:
[1] = system: P. falciparum (K1, multidrug-resistant strain); conditions: cited from earlier work
[2] = system: amastigotes of L. donovani (LD-1S/MHOM/SD/00-strain 1S); experiment: In vitro antiparasitic assay: Leishmania; assay type: cell-based; conditions: read-out: typical IC50 response of L. donovani
[3] = system: African trypanosomiasis; conditions: mice; cited from earlier work
[4] = system: T. cruzi; conditions: cited from earlier work
[5] = system: chloroquine-resistant strain (Indocrina W2) of Plasmodium falciparum; conditions: cited from earlier work
[6] = system: Vero cells; experiment: Vero cell toxicity; conditions: Vero cells versus L. donovani
[7] = system: Vero cells; conditions: cited from earlier work
[8] = system: amastigotes of L. donovani (LD-1S/MHOM/SD/00-strain 1S); conditions: cited from earlier work
[9] = system: recombinant Tulahuen clone C4 of T. cruzi; conditions: read-out: IC50 T. cruzi; cited from earlier work
[10] = system: human breast cancer cell line MCF-7; conditions: read-out: IC50 cytotoxic activity MCF-7; cited from earlier work
[11] = system: Leishmania promastigote and amastigote forms; conditions: cited from earlier work
[12] = system: Vero cells
[13] = read-out: IC50 P. falciparum K1 strain, in vitro
[14] = read-out: IC50 P. falciparum K1, K1, multidrug-resistant strain
[15] = read-out: cytotoxicity to Vero cells IC50
[16] = read-out: IC50 growth of Leishmania donovani in the amastigote form

Compound: COC1=CC(=O)C(Cl)=C(C)C1=O [2-chloro-5-methoxy-3-methylcyclohexa-2,5-diene-1,4-dione]
- IC50 [1, 13]: 1.84 µM

Compound: CC[C@@H](O)[C@@H]1C[C@@H]2OC(=O)c3c(cc(OC)c(OC)c3O)[C@@H]2O1 [11-hydroxymonocerin]
- IC50 [1, 14]: 7.7 µM

Compound: C[C@@H]1[C@H](O)[C@@H](C)/C=C/C=C/C=C/C=C/C=C/C=C/C=C/[C@H](O[C@@H]2O[C@H](C)[C@@H](O)[C@H](N)[C@@H]2O)C[C@@H]2O[C@](O)(C[C@@H](O)C[C@@H](O)[C@H](O)CC[C@@H](O)C[C@@H](O)CC(=O)O[C@H]1C)C[C@H](O)[C@H]2C(=O)O [Amphotericin B]
- IC50 [2]: 0.07 to 0.12 µg/mL (≈ 0.0758 to 0.13 µM)

Compound: C/C(=C\Cc1c(O)c(Cl)c(C)c(C=O)c1O)CC/C=C(\C)[C@@H]1CC(=O)C(C)(C)O1 [Ascofuranone]
- therapeutic effects for African trypanosomiasis [3]: good therapeutic effects

Compound: COc1cccc2oc3c(Cl)c(O)c([C@H]4CCC[C@@H](C)O4)c(O)c3c(=O)c12 [Chaetoxanthone C]
- IC50 T. cruzi [4]: 1.5 µg/mL (≈ 3.84 µM)

Compound: CCN(CC)CCCC(C)Nc1ccnc2cc(Cl)ccc12 (stereo not shown) [Chloroquine, reference compound]
- IC50 ([5]; positive control): 0.08 to 0.1 µM

Compound: O=C1CCC2(Oc3cccc4cccc(c34)O2)c2cccc(O)c21 [Compound 1, Palmarumycin CP2]
- therapeutic window: times greater anti-leishmanial activity than cytotoxicity [6]: 41 times
- IC50 [7, 15]: 162 µM
- IC50 [8, 16]: 3.93 µM

Compound: O=C1CCC2(Oc3cccc4cccc(c34)O2)c2c(O)ccc(O)c21 [Compound 2, palmarumycin CP17]
- therapeutic window: times greater anti-leishmanial activity than cytotoxicity [6]: 130 times
- IC50 [7, 15]: 174 µM
- IC50 [8, 16]: 1.34 µM

Compound: Oc1cccc2c1[C@@H](O)CCC21Oc2cccc3cccc(c23)O1 [Compound 5, CJ-12,371]
- therapeutic window: times greater anti-leishmanial activity than cytotoxicity [6]: 75 times
- IC50 [7, 15]: 9 µM
- IC50 [8, 16]: 8.4 µM

Compound: O=C1C=C[C@]23Oc4ccc(O)c5c4[C@](CCC5=O)(Oc4cccc1c42)O3 [Compound 6, preussomerin EG^1]
- therapeutic window: times greater anti-leishmanial activity than cytotoxicity [6]: 12 times
- IC50 [7, 15]: 150 µM
- IC50 [8, 16]: 0.12 µM

Compound: COc1c(CC(C)O)c2c3c(CC(C)O)c(OC)c(=O)c4c(O)cc5c(c6c(cc(O)c(c1=O)c62)OCO5)c43 (stereo not shown) [Compound 7, cercosporin]
- IC50 [9]: 1.08 µM
- IC50 [10]: 4.68 µM
- IC50 ([8]; read-out: IC50 L. donovani): 0.46 µM
- IC50 ([5]; read-out: IC50 P. falciparum): 1.03 µM

Compound: CC(C)C[C@@H](C(=O)N[C@H]1COC(=O)[C@H](Cc2ccccc2)N(C)C(=O)[C@H](CC(C)C)N(C)C(=O)[C@@H](NC(=O)[C@H](CC(C)C)N(C)C)COC(=O)[C@H](Cc2ccccc2)N(C)C(=O)[C@H](CC(C)C)N(C)C1=O)N(C)C [IB-01212]
- leishmanicidal activity [11]: low micromolar concentrations

Compound: CCC[C@H]1C[C@H]2OC(=O)c3c(cc(OC)c(OC)c3O)[C@H]2O1 [Monocerin]
- IC50 [1, 14]: 0.68 µM

Compound: COc1cc2c3c(oc2c(C)c1O)C(=O)C(C)=CC3=O [xylariaquinone A]
- IC50 [1, 13]: 6.68 µM

Compound: palmarumycin CP18 [Compound 3]
- therapeutic window: times greater anti-leishmanial activity than cytotoxicity [12]: 245 times
- IC50 [7]: 152 µM
- IC50 [8, 16]: 0.62 µM

Compound: palmarumycin CP19 [Compound 4]
- therapeutic window: times greater anti-leishmanial activity than cytotoxicity [12]: 18 times
- IC50 [7]: 140 µM
- IC50 [8, 16]: 11.6 µM
